In one test the test system is Two-Spotted Spider Mite. Put plainly: Protocol 1 Two-Spotted Spider Mite (MTA) foliar spray test. The settings on record: percentage of mites killed 1-day post-treatment. In kind it is in vivo, Tetranychus urticae. In outline: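 Lima bean leaf squares infested with about 50 adult female mites were sprayed in a track chamber at 150–600 g/ha, from a 1250 ppm stock in acetone:water:methanol 50:40:10. Held at 27 °C; percentage mortality rated 1 day after treatment.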

The next test has as its system Pyricularia oryzae. Put plainly: whole plant or invertebrate. In kind it is in vivo. The settings on record: protectant, 300 g/ha, greenhouse; 100 is total disease control, 0 is no disease control.
For another test, the system named is Sphaerotheca fuliginea. Briefly: Cucumber Powdery Mildew (CPM) protectant test in the greenhouse. The settings on record: 300 g/ha, 100 is total disease control, 0 is no disease control. In kind it is in vivo. The method in brief:
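Protectant format: one day after spraying with test compound (A/M/W 1:1:2), cotyledon-plus-one-leaf cucumber plants were misted with Sphaerotheca spores at 2×10^5/ml. Greenhouse disease development; percent control scored at day 7 (100 = total, 0 = none).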

The subject of a further test is Southern Armyworm. Put plainly: Protocol 1 Southern Armyworm (AW) foliar spray test. It counts as in vivo, Spodoptera eridania. As to the method: (§1) A test solution containing 1250 parts per million (ppm) was prepared by dissolving the test compound in […] of a second solvent (acetone: water, 1:1) to give an acetone:water: methanol system of 50: 40:10.
(§2) The enclosed spraying chamber consisted of a single spray nozzle mounted on a boom moving at a fixed speed and distance over stationary targets. The vertical distance from the nozzle tip to the targets was adjusted to give rates varying from 150 g/ha to 600 g/ha
Individual fully expanded primary lima bean (Phaseolus limensis) leaves were placed bottom side up on moistened pieces of filter paper in Petri dishes. The leaves were sprayed with the test solutions and allowed to dry. The dishes were infested with 5 third instar larvae of the southern armyworm, covered with the lids, and held at 27° C. Armyworm control was rated by visual inspection after 48 hours. […] A rating of 0 indicated no dead larvae and normal feeding. Intermediate control was indicated by intermediate ratings.

The subject of the next test is Mexican Bean Beetle. Put plainly: Protocol 1 Mexican Bean Beetle (BB) foliar spray test. It counts as in vivo, Epilachna verivestis. The settings on record: control rated after 48 hours (100 = all larvae dead). As to the method: as §1, §2
Individual fully expanded primary lima bean (Phaseolus limensis) leaves were placed bottom side up on moistened pieces of filter paper in Petri dishes. The leaves were sprayed with the test solutions and allowed to dry. The dishes were infested with 5 third instar larvae of the mexican bean beetle, covered with the lids, and held at 27° C. Bean beetle control was rated by visual inspection after 48 hours. […] A rating of 0 indicated no dead larvae and normal feeding. Intermediate control was indicated by intermediate ratings.

Compound `O=C1CNC(c2cccc(Cl)c2)=NN1CC(F)(F)F` [Compound 37] came in with an MTA in the test on Two-Spotted Spider Mite (Protocol 1, DOSE 300) of 75%. The “Rice Blast (RB) protectant fungicide data, percent control” value (shortened to “Rice Blast … percent control”) in the test on Pyricularia oryzae was 95 percent control. Besides, in the test with Sphaerotheca fuliginea, the “Cucumber Powdery Mildew (CPM) protectant fungicide data, percent control” value (“Cucumber Powdery Mildew … percent control” below) worked out at 75 percent control. Moreover, in the test with Southern Armyworm (Protocol 1, DOSE 300), the AW came out at 100. The compound also showed a BB in the test on Mexican Bean Beetle (Protocol 1, DOSE 300) of 75.

`O=c1cnc(C2CCCCC2)nn1CC(F)(F)F` [Compound 251]: the MTA in the test on Two-Spotted Spider Mite (Protocol 1, DOSE 150) is 75%. In the test with Pyricularia oryzae, the “Rice Blast … percent control” value was 75 percent control. Besides, the “Cucumber Powdery Mildew … percent control” value with Sphaerotheca fuliginea is listed as 0 percent control. In addition, in the test with Southern Armyworm (Protocol 1, DOSE 150), the AW worked out at 0. The compound further gave a BB in the test on Mexican Bean Beetle (Protocol 1, DOSE 150) of 50.

Compound `O=c1cnc(-c2ccc(Cl)cc2)nn1Cc1ccccc1` [Compound 240] came in with an MTA in the test on Two-Spotted Spider Mite (Protocol 1, DOSE 300) of 100%. Further, the “Rice Blast … percent control” value in the test on Pyricularia oryzae amounted to 95 percent control. Besides, the “Cucumber Powdery Mildew … percent control” value in the test with Sphaerotheca fuliginea was 75 percent control. In addition, the AW with Southern Armyworm (Protocol 1, DOSE 300) worked out at 50. Also, the BB in the test on Mexican Bean Beetle (Protocol 1, DOSE 300) was 75.

Compound `CCCC(C)n1nc(-c2ccc(Cl)cc2)ncc1=O` (stereo not shown) [Compound 254] yielded an MTA in the test with Two-Spotted Spider Mite (Protocol 1, DOSE 150) of 100%. Also, the “Rice Blast … percent control” value with Pyricularia oryzae worked out at 95 percent control. The “Cucumber Powdery Mildew … percent control” value in the test on Sphaerotheca fuliginea was found to be 0 percent control. The compound further registered an AW with Southern Armyworm (Protocol 1, DOSE 150) of 0. Besides, the BB with Mexican Bean Beetle (Protocol 1, DOSE 150) is on record as 100.

With `O=C1CNC(c2ccccc2)=NN1CC(F)(F)F` [Compound 33], in the test with Two-Spotted Spider Mite (Protocol 1, DOSE 300), the MTA is reported as 75%. Further, the “Rice Blast … percent control” value in the test on Pyricularia oryzae is recorded as 80 percent control. Further, the “Cucumber Powdery Mildew … percent control” value in the test on Sphaerotheca fuliginea is on record as 75 percent control. Moreover, the AW in the test with Southern Armyworm (Protocol 1, DOSE 300) stood at 0. In the test with Mexican Bean Beetle (Protocol 1, DOSE 300), this compound had a BB of 100.

In the test with Two-Spotted Spider Mite (Protocol 1, DOSE 300), `CN1N=C(c2ccc(Cl)cc2)NCC1=O` [Compound 27] showed an MTA of 0%. The “Rice Blast … percent control” value in the test with Pyricularia oryzae came out at 80 percent control. In the test on Sphaerotheca fuliginea, the “Cucumber Powdery Mildew … percent control” value came out at 99 percent control. The AW in the test with Southern Armyworm (Protocol 1, DOSE 300) was 0. Moreover, in the test on Mexican Bean Beetle (Protocol 1, DOSE 300), the BB was found to be 75.

As for `O=C1CNC(Cc2ccccc2)=NN1CC(F)(F)F` [Compound 44], in the test on Two-Spotted Spider Mite (Protocol 1, DOSE 150), the MTA stood at 0%. Also, the “Rice Blast … percent control” value in the test with Pyricularia oryzae is 85 percent control. Moreover, the “Cucumber Powdery Mildew … percent control” value in the test with Sphaerotheca fuliginea came out at 0 percent control. In addition, the AW in the test on Southern Armyworm (Protocol 1, DOSE 150) is 75. The BB with Mexican Bean Beetle (Protocol 1, DOSE 150) turned out to be 0.

In the case of `O=C1CNC(c2ccccn2)=NN1CC(F)(F)F` [Compound 52], in the test on Two-Spotted Spider Mite (Protocol 1, DOSE 150), the MTA was 100%. Further, the “Rice Blast … percent control” value with Pyricularia oryzae is 50 percent control. The “Cucumber Powdery Mildew … percent control” value in the test with Sphaerotheca fuliginea amounted to 0 percent control. The compound further had an AW with Southern Armyworm (Protocol 1, DOSE 150) of 0. Moreover, in the test on Mexican Bean Beetle (Protocol 1, DOSE 150), the BB worked out at 0.

In turn, `Cc1ccc(C2=NN(CC(F)(F)F)C(=O)CN2)cc1` [Compound 41] had an MTA with Two-Spotted Spider Mite (Protocol 1, DOSE 300) of 0%. Further, the “Rice Blast … percent control” value in the test on Pyricularia oryzae stood at 100 percent control. In the test on Sphaerotheca fuliginea, the “Cucumber Powdery Mildew … percent control” value is recorded as 50 percent control. This compound had an AW with Southern Armyworm (Protocol 1, DOSE 300) of 0. Further, in the test with Mexican Bean Beetle (Protocol 1, DOSE 300), the BB was determined as 50.

Take `COC1NC(c2ccc(Cl)cc2)=NN(CC(F)(F)F)C1=O` (stereo not shown) [Compound 26]: in the test with Two-Spotted Spider Mite (Protocol 1, DOSE 300), the MTA came out at 0%. In addition, the “Rice Blast … percent control” value with Pyricularia oryzae is reported as 100 percent control. In addition, the “Cucumber Powdery Mildew … percent control” value in the test with Sphaerotheca fuliginea is 95 percent control. In addition, in the test on Southern Armyworm (Protocol 1, DOSE 300), the AW stood at 0. The BB in the test on Mexican Bean Beetle (Protocol 1, DOSE 300) was 50.

Consider `O=C1CNC(c2ccc(Cl)cc2)=NN1c1ccccc1` [Compound 29], for which the MTA in the test with Two-Spotted Spider Mite (Protocol 1, DOSE 300) worked out at 90%. Also, in the test on Pyricularia oryzae, the “Rice Blast … percent control” value was 90 percent control. The “Cucumber Powdery Mildew … percent control” value in the test on Sphaerotheca fuliginea amounted to 90 percent control. The compound further showed an AW in the test on Southern Armyworm (Protocol 1, DOSE 300) of 0. For the same compound, the BB with Mexican Bean Beetle (Protocol 1, DOSE 300) came to 0.

The compound `CC(=O)N1CC(=O)N(CC(F)(F)F)N=C1c1ccc(Cl)cc1` [Compound 40] registered an MTA in the test on Two-Spotted Spider Mite (Protocol 1, DOSE 300) of 90%. Besides, the “Rice Blast … percent control” value in the test on Pyricularia oryzae came out at 90 percent control. Also, in the test on Sphaerotheca fuliginea, the “Cucumber Powdery Mildew … percent control” value amounted to 0 percent control. The compound further had an AW in the test with Southern Armyworm (Protocol 1, DOSE 300) of 0. Also, in the test on Mexican Bean Beetle (Protocol 1, DOSE 300), the BB came to 50.

With `O=c1cnc(Cc2ccccc2)nn1CC(F)(F)F` [Compound 249], in the test on Two-Spotted Spider Mite (Protocol 1, DOSE 150), the MTA came to 90%. The “Rice Blast … percent control” value in the test on Pyricularia oryzae came to 85 percent control. The “Cucumber Powdery Mildew … percent control” value in the test with Sphaerotheca fuliginea came to 0 percent control. Besides, the AW in the test on Southern Armyworm (Protocol 1, DOSE 150) was determined as 100. Besides, the BB with Mexican Bean Beetle (Protocol 1, DOSE 150) was 0.

For `CCC(C)N1N=C(C2CCCCC2)NCC1=O` (stereo not shown) [Compound 48], the MTA in the test with Two-Spotted Spider Mite (Protocol 1, DOSE 150) worked out at 75%. The “Rice Blast … percent control” value in the test with Pyricularia oryzae worked out at 50 percent control. Further, the “Cucumber Powdery Mildew … percent control” value in the test with Sphaerotheca fuliginea is recorded as 0 percent control. Besides, the AW in the test on Southern Armyworm (Protocol 1, DOSE 150) came to 0. For the same compound, the BB with Mexican Bean Beetle (Protocol 1, DOSE 150) came to 0.

On to `O=c1cnc(-c2ccc(Cl)cc2)nn1CC(F)(F)F` [Compound 233], for which, in the test with Two-Spotted Spider Mite (Protocol 1, DOSE 300), the MTA worked out at 0%. In addition, the “Rice Blast … percent control” value with Pyricularia oryzae came to 100 percent control. Moreover, the “Cucumber Powdery Mildew … percent control” value with Sphaerotheca fuliginea is 80 percent control. Also, the AW in the test with Southern Armyworm (Protocol 1, DOSE 300) is reported as 50. In the test on Mexican Bean Beetle (Protocol 1, DOSE 300), the BB is reported as 75.

In the test on Two-Spotted Spider Mite (Protocol 1, DOSE 300), `Cc1ccc(-c2ncc(=O)n(CC(F)(F)F)n2)cc1` [Compound 247] displayed an MTA of 0%. The “Rice Blast … percent control” value with Pyricularia oryzae amounted to 100 percent control. Further, the “Cucumber Powdery Mildew … percent control” value with Sphaerotheca fuliginea came out at 80 percent control. Moreover, in the test with Southern Armyworm (Protocol 1, DOSE 300), the AW was determined as 0. This compound also displayed a BB with Mexican Bean Beetle (Protocol 1, DOSE 300) of 90.

Take `CCn1nc(-c2ccc(Cl)cc2)ncc1=O` [Compound 235]: the MTA with Two-Spotted Spider Mite (Protocol 1, DOSE 300) is listed as 100%. For the same compound, in the test with Pyricularia oryzae, the “Rice Blast … percent control” value stood at 90 percent control. The “Cucumber Powdery Mildew … percent control” value with Sphaerotheca fuliginea is 80 percent control. The same compound showed an AW with Southern Armyworm (Protocol 1, DOSE 300) of 0. Moreover, the BB with Mexican Bean Beetle (Protocol 1, DOSE 300) was determined as 100.

For the origin of these results see US7494996B2 (priority 2000, dated 2009).
